Reference: ChEMBL document CHEMBL6071142, “Isoalantolactone/hydroxamic acid hybrids as potent dual STAT3/HDAC inhibitors and self-assembled nanoparticles for cancer therapy” (Eur J Med Chem, 2024)
Calls of active or inactive are those of the source. No cut-off for these calls is given here.

How the values were obtained:
Histone deacetylase 3 = Histone deacetylase 3 (Homo sapiens, UniProt O15379); experiment: Inhibition of recombinant human HDAC3 using Boc-Lys (acetyl)-AMC as substrate preincubated with compound for 1 hr followed by substrate addition and measured after 30 mins by microplate reader assay
Sequence of Histone deacetylase 3 (O15379 whole entry): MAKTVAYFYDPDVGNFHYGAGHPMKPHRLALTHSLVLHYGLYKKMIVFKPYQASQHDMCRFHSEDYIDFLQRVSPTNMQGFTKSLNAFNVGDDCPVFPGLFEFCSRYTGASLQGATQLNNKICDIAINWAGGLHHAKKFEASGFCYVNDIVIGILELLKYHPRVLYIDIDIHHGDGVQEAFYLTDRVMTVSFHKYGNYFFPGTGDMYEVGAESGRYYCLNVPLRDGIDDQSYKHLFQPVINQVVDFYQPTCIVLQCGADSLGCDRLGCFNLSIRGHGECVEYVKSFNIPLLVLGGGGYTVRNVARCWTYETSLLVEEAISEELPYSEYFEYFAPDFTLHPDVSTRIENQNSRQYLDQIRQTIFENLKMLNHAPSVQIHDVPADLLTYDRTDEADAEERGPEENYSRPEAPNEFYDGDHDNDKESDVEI

Histone deacetylase 7 = Histone deacetylase 7 (Homo sapiens, UniProt Q8WUI4); experiment: Inhibition of recombinant human HDAC7 using Boc-Lys (trifluroacetyl)-AMC as substrate preincubated with compound for 1 hr followed by substrate addition and measured after 30 mins by microplate reader assay
Histone deacetylase 9 = Histone deacetylase 9 (Homo sapiens, UniProt Q9UKV0); experiment: Inhibition of recombinant human HDAC9 using Boc-Lys (trifluroacetyl)-AMC as substrate preincubated with compound for 1 hr followed by substrate addition and measured after 30 mins by microplate reader assay
Sequence of Histone deacetylase 9 (Q9UKV0 whole entry): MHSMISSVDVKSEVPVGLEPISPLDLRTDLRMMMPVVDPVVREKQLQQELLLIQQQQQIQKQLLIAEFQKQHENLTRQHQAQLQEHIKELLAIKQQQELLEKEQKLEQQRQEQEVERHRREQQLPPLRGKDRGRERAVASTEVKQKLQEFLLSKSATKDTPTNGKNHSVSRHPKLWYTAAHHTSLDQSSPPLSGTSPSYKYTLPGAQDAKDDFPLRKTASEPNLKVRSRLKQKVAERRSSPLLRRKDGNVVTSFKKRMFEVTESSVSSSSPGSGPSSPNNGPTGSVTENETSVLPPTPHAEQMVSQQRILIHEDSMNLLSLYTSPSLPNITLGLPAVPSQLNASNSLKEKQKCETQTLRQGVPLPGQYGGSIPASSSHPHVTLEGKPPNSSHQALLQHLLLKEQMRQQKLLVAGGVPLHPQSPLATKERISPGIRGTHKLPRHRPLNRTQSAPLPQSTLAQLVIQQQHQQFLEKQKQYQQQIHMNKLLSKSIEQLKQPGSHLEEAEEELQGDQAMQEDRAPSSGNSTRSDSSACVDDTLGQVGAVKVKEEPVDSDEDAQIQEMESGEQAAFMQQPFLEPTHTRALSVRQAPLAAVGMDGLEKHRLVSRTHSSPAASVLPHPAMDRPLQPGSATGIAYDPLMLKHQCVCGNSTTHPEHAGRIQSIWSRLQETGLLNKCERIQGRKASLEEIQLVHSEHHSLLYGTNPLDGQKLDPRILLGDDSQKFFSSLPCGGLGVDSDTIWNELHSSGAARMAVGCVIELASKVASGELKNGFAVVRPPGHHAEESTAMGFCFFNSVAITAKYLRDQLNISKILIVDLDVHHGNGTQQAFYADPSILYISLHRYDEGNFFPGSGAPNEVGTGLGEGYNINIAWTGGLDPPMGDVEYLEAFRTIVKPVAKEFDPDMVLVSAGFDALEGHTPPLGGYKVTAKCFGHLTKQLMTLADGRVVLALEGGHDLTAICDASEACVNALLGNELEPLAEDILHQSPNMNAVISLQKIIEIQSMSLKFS

Histone deacetylase 11 = Histone deacetylase 11 (Homo sapiens, UniProt Q96DB2); experiment: Inhibition of recombinant human HDAC11 using Boc-Lys (trifluroacetyl)-AMC as substrate preincubated with compound for 1 hr followed by substrate addition and measured after 30 mins by microplate reader assay
[1] = target: Signal transducer and activator of transcription 4 (Homo sapiens, UniProt Q14765); experiment: Binding affinity to STAT4 (unknown origin) assessed as dissociation constant by SPR assay
[2] = target: Signal transducer and activator of transcription 5B (Homo sapiens, UniProt P51692); experiment: Binding affinity to STAT5B (unknown origin) assessed as dissociation constant by SPR assay
A549 [3] = experiment: cells; format: functional, cell-based; settings: Homo sapiens, A549, 72 h
Description: Antiproliferative activity against human A549 cells assessed as inhibition of cell proliferation incubated for 72 hrs by CCK-8 assay

HepG2 = experiment: Antiproliferative activity against human HepG2 cells assessed as inhibition of cell proliferation incubated for 72 hrs by CCK-8 assay; format: functional, cell-based; settings: HepG2, 72 h
[4] = target: Signal transducer and activator of transcription 3 (Homo sapiens, UniProt P40763); experiment: Inhibition of STAT3 phosphorylation in human A549 cells at 0.1 to 8 uM incubated for 12 hrs by Western blot analysis; format: cell-based; settings: dose 0.1-8 µM
Sequence of Signal transducer and activator of transcription 3 (P40763 whole entry): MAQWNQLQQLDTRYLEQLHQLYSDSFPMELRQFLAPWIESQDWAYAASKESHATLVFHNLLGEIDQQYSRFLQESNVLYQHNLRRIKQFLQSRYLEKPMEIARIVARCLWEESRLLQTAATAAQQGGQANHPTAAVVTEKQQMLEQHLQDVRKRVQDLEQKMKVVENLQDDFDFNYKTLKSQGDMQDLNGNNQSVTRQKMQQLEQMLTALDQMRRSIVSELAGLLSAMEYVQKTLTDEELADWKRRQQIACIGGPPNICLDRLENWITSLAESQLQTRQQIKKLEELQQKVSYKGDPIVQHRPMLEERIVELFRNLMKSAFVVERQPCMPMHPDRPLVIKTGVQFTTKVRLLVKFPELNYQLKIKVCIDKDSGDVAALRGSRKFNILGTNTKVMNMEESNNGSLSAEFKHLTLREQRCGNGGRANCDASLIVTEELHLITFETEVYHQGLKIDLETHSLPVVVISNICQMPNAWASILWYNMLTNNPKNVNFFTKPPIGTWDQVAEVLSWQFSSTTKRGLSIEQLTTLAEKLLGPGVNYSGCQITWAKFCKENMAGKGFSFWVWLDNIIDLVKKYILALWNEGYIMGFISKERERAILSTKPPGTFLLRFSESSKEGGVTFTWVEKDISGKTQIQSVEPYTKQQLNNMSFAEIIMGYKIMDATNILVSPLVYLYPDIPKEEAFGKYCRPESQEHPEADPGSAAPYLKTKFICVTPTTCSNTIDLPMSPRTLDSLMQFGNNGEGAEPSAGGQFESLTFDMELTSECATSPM

[5] = target: T1, Class 1 histone deacetylase (Homo sapiens) (UniProt Q13547+O15379+Q92769+Q9BY41); experiment: Inhibition of class 1 HDAC in human A549 cells assessed as increase in […] at 0.5 uM incubated for 12 hrs by Western blot analysis; format: cell-based
T1 sequence (O15379 whole entry, looked up): as the sequence (O15379 whole entry) above
T1 sequence (Q13547 whole entry, looked up): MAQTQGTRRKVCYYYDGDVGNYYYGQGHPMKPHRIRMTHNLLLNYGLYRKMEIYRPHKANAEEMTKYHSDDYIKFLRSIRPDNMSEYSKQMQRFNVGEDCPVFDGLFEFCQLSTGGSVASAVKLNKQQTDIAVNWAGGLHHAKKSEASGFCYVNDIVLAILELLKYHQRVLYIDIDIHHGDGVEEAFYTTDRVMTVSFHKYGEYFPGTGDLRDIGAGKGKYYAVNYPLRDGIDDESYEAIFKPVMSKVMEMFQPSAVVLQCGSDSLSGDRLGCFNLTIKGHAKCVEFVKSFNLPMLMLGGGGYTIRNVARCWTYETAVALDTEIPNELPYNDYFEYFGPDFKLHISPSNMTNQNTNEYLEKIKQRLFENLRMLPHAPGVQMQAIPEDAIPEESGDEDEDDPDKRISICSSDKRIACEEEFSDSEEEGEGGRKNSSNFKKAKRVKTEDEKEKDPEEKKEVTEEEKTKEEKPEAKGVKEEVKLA
T1 sequence (Q92769 whole entry, looked up): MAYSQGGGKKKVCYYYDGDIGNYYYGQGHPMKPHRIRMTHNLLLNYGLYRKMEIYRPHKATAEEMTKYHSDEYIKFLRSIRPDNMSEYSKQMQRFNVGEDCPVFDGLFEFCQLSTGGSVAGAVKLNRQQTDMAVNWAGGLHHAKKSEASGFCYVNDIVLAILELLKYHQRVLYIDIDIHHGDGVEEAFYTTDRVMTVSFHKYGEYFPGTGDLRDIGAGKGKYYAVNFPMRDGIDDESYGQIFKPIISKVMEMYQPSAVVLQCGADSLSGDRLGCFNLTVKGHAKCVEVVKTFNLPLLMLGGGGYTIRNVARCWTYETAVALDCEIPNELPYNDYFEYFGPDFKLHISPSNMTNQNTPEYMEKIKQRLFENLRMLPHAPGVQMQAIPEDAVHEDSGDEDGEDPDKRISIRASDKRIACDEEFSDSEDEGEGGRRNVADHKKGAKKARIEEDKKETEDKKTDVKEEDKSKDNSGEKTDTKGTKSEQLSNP
T1 sequence (Q9BY41 whole entry, looked up): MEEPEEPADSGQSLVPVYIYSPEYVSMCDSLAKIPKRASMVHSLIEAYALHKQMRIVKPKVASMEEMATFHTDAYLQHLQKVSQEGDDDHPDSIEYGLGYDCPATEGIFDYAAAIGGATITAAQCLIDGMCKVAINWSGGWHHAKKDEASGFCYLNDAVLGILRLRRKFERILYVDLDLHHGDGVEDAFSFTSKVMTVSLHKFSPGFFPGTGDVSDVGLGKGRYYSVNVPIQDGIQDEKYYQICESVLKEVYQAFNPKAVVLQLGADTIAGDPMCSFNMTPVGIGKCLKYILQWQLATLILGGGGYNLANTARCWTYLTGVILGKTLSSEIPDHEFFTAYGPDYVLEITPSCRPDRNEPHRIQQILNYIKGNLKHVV

[6] = target: T1, Class 1 histone deacetylase (Homo sapiens); experiment: Inhibition of class 1 HDAC in human A549 cells assessed as increase in Ac-histone H3 level at 0.5 uM incubated for 12 hrs by Western blot analysis; format: cell-based
[7] = target: Protein deacetylase HDAC6 (Homo sapiens) (UniProt Q9UBN7); experiment: Inhibition of HDAC6 in human A549 cells assessed as increase in Ac-tubulin at 0.5 uM incubated for 12 hrs by Western blot analysis; format: cell-based
Sequence of Protein deacetylase HDAC6 (Homo sapiens) (Q9UBN7 whole entry): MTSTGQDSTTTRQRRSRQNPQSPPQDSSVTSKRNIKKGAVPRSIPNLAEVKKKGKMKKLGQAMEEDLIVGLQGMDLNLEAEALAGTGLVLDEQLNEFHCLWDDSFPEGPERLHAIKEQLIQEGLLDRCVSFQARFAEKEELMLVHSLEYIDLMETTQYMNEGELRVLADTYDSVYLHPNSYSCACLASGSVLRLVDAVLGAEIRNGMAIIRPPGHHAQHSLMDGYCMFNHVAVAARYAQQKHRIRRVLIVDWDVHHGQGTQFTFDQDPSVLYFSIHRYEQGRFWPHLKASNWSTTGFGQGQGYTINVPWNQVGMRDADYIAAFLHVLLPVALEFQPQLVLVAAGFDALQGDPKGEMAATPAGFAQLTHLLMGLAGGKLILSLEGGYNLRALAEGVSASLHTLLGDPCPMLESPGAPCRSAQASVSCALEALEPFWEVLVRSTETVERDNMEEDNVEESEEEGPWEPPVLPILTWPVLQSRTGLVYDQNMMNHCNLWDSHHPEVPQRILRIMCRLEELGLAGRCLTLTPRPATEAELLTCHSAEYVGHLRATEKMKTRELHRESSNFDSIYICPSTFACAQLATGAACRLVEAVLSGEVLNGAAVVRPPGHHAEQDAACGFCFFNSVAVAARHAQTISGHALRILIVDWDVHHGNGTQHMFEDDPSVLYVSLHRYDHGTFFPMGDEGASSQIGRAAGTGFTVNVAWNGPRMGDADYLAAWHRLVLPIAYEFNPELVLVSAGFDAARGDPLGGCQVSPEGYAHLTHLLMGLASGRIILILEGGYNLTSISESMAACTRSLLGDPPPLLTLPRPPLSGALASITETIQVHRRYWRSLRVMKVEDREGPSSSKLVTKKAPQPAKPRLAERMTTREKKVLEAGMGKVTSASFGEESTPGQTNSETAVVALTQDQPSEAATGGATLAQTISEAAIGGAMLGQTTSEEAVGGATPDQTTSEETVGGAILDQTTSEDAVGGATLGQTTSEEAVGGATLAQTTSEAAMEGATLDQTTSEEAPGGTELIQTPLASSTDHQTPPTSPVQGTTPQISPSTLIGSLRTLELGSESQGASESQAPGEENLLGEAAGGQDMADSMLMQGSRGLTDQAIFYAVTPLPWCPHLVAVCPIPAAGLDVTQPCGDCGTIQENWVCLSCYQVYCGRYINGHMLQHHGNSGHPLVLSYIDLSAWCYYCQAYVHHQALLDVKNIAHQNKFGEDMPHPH

[8] = target: Protein deacetylase HDAC6 (Homo sapiens) (UniProt Q9UBN7); experiment: Inhibition of HDAC6 in human A549 cells assessed as increase in […] level at 0.5 uM incubated for 12 hrs by Western blot analysis; format: cell-based
A549 [9] = experiment: Effect on Bcl-2 protein level in human A549 cells at 4 uM incubated for 12 hrs by Western blot analysis; format: functional, cell-based
A549 [10] = experiment: Induction of autophagy in human A549 cells transfected with mRFP-GFP-LC3 assessed as decrease in P62 protein level at 0.5 uM incubated for 12 hrs by Western blot analysis; format: functional, cell-based
A549 [11] = experiment: Induction of autophagy in human A549 cells transfected with mRFP-GFP-LC3 assessed as increase in LC3-II:LC3-I protein level at 0.5 uM by Western blot analysis; format: functional, cell-based; settings: time 0-72 hrs, TDE = time-dependent effect
[12] = Toxicity in female BALB/c nu/nu mouse xenografted with human A549 cells assessed as effect on lung at 2.5 mg/kg, iv by H and E staining based analysis; format: organism-based; settings: in vivo
[13] = Toxicity in female BALB/c nu/nu mouse xenografted with human A549 cells assessed as effect on liver at 2.5 mg/kg, iv by H and E staining based analysis; format: organism-based; settings: in vivo
[14] = Toxicity in female BALB/c nu/nu mouse xenografted with human A549 cells assessed as effect on liver at 5 mg/kg, iv by H and E staining based analysis; format: organism-based; settings: in vivo
[15] = Toxicity in female BALB/c nu/nu mouse xenografted with human A549 cells assessed as effect on spleen at 2.5 mg/kg, iv by H and E staining based analysis; format: organism-based; settings: in vivo
[16] = Toxicity in female BALB/c nu/nu mouse xenografted with human A549 cells assessed as effect on spleen at 5 mg/kg, iv by H and E staining based analysis; format: organism-based; settings: in vivo
A549 [17] = experiment: Anticancer activity against human A549 cells assessed as cell viability incubated for 72 hrs using self assembled nanoparticle as source of compound by CCK-8 assay; format: functional, cell-based; settings: A549, 72 h
HCT-116 [18] = experiment: Anticancer activity against human HCT-116 cells assessed as cell viability incubated for 72 hrs using self assembled nanoparticle as source of compound by CCK-8 assay; format: functional, cell-based; settings: HCT-116, 72 h
[19] = Toxicity in female BALB/c nu/nu mouse xenografted with human A549 cells assessed as effect on body weight at 5 mg/kg, iv using self assembled nanoparticle as source of compound and measured regularly; format: organism-based; settings: in vivo
[20] = Drug uptake in human A549 cells assessed as increase in red fluorescence incubated for 4 hrs using chlorine e6 loaded self assembled nanoparticle as source of compound by fluorescence based flow cytometric analysis; format: ADME, cell-based; settings: a549, 4 h
[21] = Drug accumulation in nude mouse xenografted with A549 cells assessed as increase in fluorescence at 5 mg/kg, iv using chlorine e6 loaded self-assembled nanoparticle as source of compound incubated for 24 hrs by ex-vivo fluorescence based analysis; format: ADME, organism-based
[22] = Biodistribution in spleen of nude mouse xenografted with A549 cells at 5 mg/kg, iv using chlorine e6 loaded self-assembled nanoparticle as source of compound incubated for 24 hrs by ex-vivo fluorescence based LC-MS/MS analysis; format: ADME, organism-based
[23] = Biodistribution in lung of nude mouse xenografted with A549 cells at 5 mg/kg, iv using chlorine e6 loaded self-assembled nanoparticle as source of compound incubated for 24 hrs by ex-vivo fluorescence based LC-MS/MS analysis; format: ADME, organism-based
HCT-116 [24] = experiment: cells; settings: Homo sapiens, HCT-116, 72 h
Description: Antiproliferative activity against human HCT-116 cells assessed as inhibition of cell proliferation incubated for 72 hrs by CCK-8 assay

A549 [25] = experiment: Induction of autophagy in human A549 cells assessed as upregulation of LC3-II at 4 uM incubated for 12 hrs by Western blot analysis
A549 [26] = experiment: In vivo antitumor activity against human A549 cells xenografted in female BALB/c nu/nu mouse assessed as Ac-Histone H3 at 5 mg/kg, iv administered every 3 days for 18 days by Western blotting analysis; settings: time 3.0 day
A549 [27] = experiment: In vivo antitumor activity against human A549 cells xenografted in female BALB/c nu/nu mouse assessed as reduction in tumor weight at 5 mg/kg, iv administered every 3 days for 18 days using self assembled nanoparticle as source of compound and measured every 3 days; settings: time 3.0 day

SMILES: C=C1C(=O)O[C@@H]2C[C@@]3(C)CC[C@@H](OC(=O)[C@H](C)NC(=O)c4ccc(/C=C/C(=O)NO)cc4)C(=C)[C@@H]3C[C@H]12
- IC50 (Histone deacetylase 3): 51.9 nM
- IC50 (Histone deacetylase 7): > 10000 nM
- IC50 (Histone deacetylase 9): > 10000 nM
- IC50 (Histone deacetylase 11): 265 nM
- Kd [1]: Not Active
- Kd [2]: Not Active
- IC50 (A549 [3]): 120 nM
- IC50 (HepG2): 260 nM
- inhibition [4]: Active
- inhibition [5]: Active
- inhibition [6]: Active
- inhibition [7]: Active
- inhibition [8]: Active
- Activity (A549 [9]): inactive
- Activity (A549 [10]): Active
- Activity (A549 [11]): Tde
- Activity [12]: Non-Toxic
- Activity [13]: Non-Toxic
- Activity [14]: Non-Toxic
- Activity [15]: Non-Toxic
- Activity [16]: Non-Toxic
- IC50 (A549 [17]): 69 nM
- IC50 (HCT-116 [18]): 23 nM
- Activity [19]: Non-Toxic
- Drug uptake [20]: Active
- Drug uptake [21]: Active
- Drug uptake [22]: Active
- Drug uptake [23]: Active
- IC50 (HCT-116 [24]): 40 nM
- Activity (A549 [25]): Active
- Activity (A549 [26]): Active
- Activity (A549 [27]): Active
